Experimental data taken from patent US9375000B2, “Pesticidal arylpyrrolidines” (Bayer Intellectual Property GmbH, priority 2011, dated 2016).

What was measured:
Assay type in all cases: in vivo
[1] = test system: Larvae of Spodoptera litura; assay: Larvae of Spodoptera litura, method using artificial feeds; conditions: artificial feed, after 7 days
How it was run: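 Compound formulated in dimethylformamide with polyoxyethylene alkyl phenyl ether emulsifier, water-diluted and poured onto artificial diet. Five 3rd-instar Spodoptera litura larvae per cup, held at 25° C and 50-60% humidity. Mortality after 7 days expressed as pesticidal ratio.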

[2] = test system: Cucurbit Leaf Beetle (Aulacophora femoralis); assay: Cucurbit leaf beetle (Aulacophora femoralis) cucumber leaf dip test; conditions: after 7 days
How it was run: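 Cucumber leaves dipped in compound formulated with DMF and polyoxyethylene alkyl phenyl ether, diluted in water, with ammonium salt or ammonium salt plus penetration enhancer at 1000 ppm added if necessary; dried leaves placed on sterilized soil with five second-instar larvae. Kept at 25° C; larval mortality counted after 7 days.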

[3] = test system: Two-Spotted Spider Mite (Tetranychus urticae); assay: Two-spotted spider mite (Tetranychus urticae) spray test on kidney bean; conditions: after 7 days
Method: Unless not mentioned otherwise, the test solutions were prepared as follows:
Solvent: 3 parts by weight Dimethylformamide
Emulsifier: 1 part by weight Polyoxyethylene alkyl phenyl ether
In order to make an appropriate formulation of an active compound, 1 part by weight of the active compound is mixed with the above mentioned amount of solvent and emulsifier and the mixture is diluted with water to a prescribed concentration. Ammonium salt or ammonium salt and penetration enhancer in a dosage of 1000 ppm are added to the desired concentration if necessary.
50 to 100 adult mites of Tetranychus urticae were inoculated to leaves of kidney bean at two-leaf stage planted in a pot of 6 cm in diameter. After one day, test solution at the appropriate concentration was sprayed thereon in a sufficient amount using a spray gun. After the spraying, the plant pot was placed inside a greenhouse, and after 7 days, the acaricidal activity was calculated. An acaricidal activity of 100% means that all mites were killed, whereas an acaricidal activity of 0% means that no mite was killed.

[4] = active compound concentration 20 ppm
[5] = active compound concentration 100 ppm
[6] = active compound concentration 4 ppm

O=C(CC(F)(F)F)NCc1ccc(N2CCC(c3cc(C(F)(F)F)cc(C(F)(F)F)c3)(C(F)(F)F)C2O)nc1Br (centres unmarked) [A3-161, N-[(6-{3-[3,5-bis(trifluoromethyl)phenyl]-2-hydroxy-3-(trifluoromethyl)pyrrolidin-1-yl}-2-bromopyridin-3-yl)methyl]-3,3,3-trifluoropropanamide]
pest or weed control at 20 ppm ([1]; Spodoptera litura, 168 h, active compound concentration 20 ppm, read-out: insecticidal activity (pesticidal ratio)): 100% | pest or weed control at 20 ppm ([2]; Aulacophora, foliar, 168 h, active compound concentration 20 ppm, read-out: insecticidal activity): 100% | pest or weed control at 20 ppm ([3]; Tetranychus urticae, 168 h, active compound concentration 20 ppm, read-out: acaricidal activity): 100%

CSCC(=O)NCc1ccc(N2CCC(c3cc(C(F)(F)F)cc(C(F)(F)F)c3)(C(F)(F)F)C2O)cc1Cl (centres unmarked) [A1-31]
insecticidal activity (pesticidal ratio) [1, 4]: 100% | insecticidal activity [2, 4]: 100% | acaricidal activity [3, 4]: 100%

CC(C)(C)OC(=O)NCc1ccc(N2CCC(c3cc(Cl)c(Cl)c(Cl)c3)(C(F)(F)F)C2O)cc1 (centres unmarked) [A1-575]
insecticidal activity (pesticidal ratio) [1, 5]: 80% | insecticidal activity [2, 5]: 100% | acaricidal activity [3, 5]: 98%

CCC(=O)NCc1ccc(N2CCC(c3cc(C(F)(F)F)cc(C(F)(F)F)c3)(C(F)(F)F)C2O)nc1C (centres unmarked) [A3-123]
insecticidal activity (pesticidal ratio) [1, 4]: 100% | insecticidal activity [2, 4]: 100% | acaricidal activity [3, 4]: 100%

O=C(NCc1ccc(N2CCC(c3cc(Cl)c(Cl)c(Cl)c3)(C(F)(F)F)C2O)cc1Br)C1CC1 (mixture of isomers) [A1-165]
insecticidal activity (pesticidal ratio) [1, 4]: 100% | insecticidal activity [2, 4]: 100% | acaricidal activity [3, 4]: 100%

CCC(=O)NCc1ccc(N2CCC(c3cc(Cl)cc(C(F)(F)F)c3)(C(F)(F)F)C2O)cc1C(F)(F)F (centres unmarked) [A1-338]
insecticidal activity (pesticidal ratio) [1, 4]: 100% | insecticidal activity [2, 4]: 100% | acaricidal activity [3, 4]: 100%

O=C(NCc1ccc(N2CCC(c3cccc(C(F)(F)F)c3)(C(F)(F)F)C2O)nc1C(F)(F)F)C1CC1 (racemic) [A3-225]
insecticidal activity (pesticidal ratio) [1, 4]: 100% | insecticidal activity [2, 4]: 100% | acaricidal activity [3, 4]: 100%

CCC(=O)NCc1ccc(N2CCC(c3cccc(C(F)(F)F)c3)(C(F)(F)F)C2O)cc1C(F)(F)F (racemic) [A1-294]
insecticidal activity (pesticidal ratio) [1, 4]: 100% | insecticidal activity [2, 4]: 100% | acaricidal activity [3, 4]: 100%

CCC(=O)NCc1ccc(N2CCC(c3cccc(C(F)(F)F)c3)(C(F)(F)F)C2O)nc1C(F)(F)F (racemic) [A3-222]
insecticidal activity (pesticidal ratio) [1, 4]: 100% | insecticidal activity [2, 4]: 100% | acaricidal activity [3, 4]: 100%

CC(=O)NCc1ccc(N2CCC(c3cc(Cl)c(F)c(Cl)c3F)(C(F)(F)F)C2O)cc1Br (centres unmarked) [A1-429]
insecticidal activity (pesticidal ratio) [1, 6]: 100% | insecticidal activity [2, 6]: 100% | acaricidal activity [3, 4]: 100%

CS(=O)(=O)CC(=O)NCc1ccc(N2CCC(c3cc(C(F)(F)F)cc(C(F)(F)F)c3)(C(F)(F)F)C2O)cc1Cl (centres unmarked) [A1-33]
insecticidal activity (pesticidal ratio) [1, 4]: 100% | insecticidal activity [2, 4]: 100% | acaricidal activity [3, 4]: 100%

CS(=O)(=O)CC(=O)NCc1ccc(N2CCC(c3cc(C(F)(F)F)cc(C(F)(F)F)c3)(C(F)(F)F)C2O)nc1C(F)(F)F (centres unmarked) [A3-33]
insecticidal activity (pesticidal ratio) [1, 4]: 100% | insecticidal activity [2, 4]: 100% | acaricidal activity [3, 4]: 100%

Cc1nc(N2CCC(c3cc(C(F)(F)F)cc(C(F)(F)F)c3)(C(F)(F)F)C2O)ccc1CNC(=O)CC1CC1 (centres unmarked) [A3-127]
insecticidal activity (pesticidal ratio) [1, 6]: 80% | insecticidal activity [2, 6]: 100% | insecticidal activity [2, 4]: 100% | acaricidal activity [3, 6]: 100% | acaricidal activity [3, 4]: 100%

CCC(=O)NCc1cnc(N2CCC(c3cc(C(F)(F)F)cc(C(F)(F)F)c3)(C(F)(F)F)C2O)nc1C(F)(F)F (centres unmarked) [A4-24]
insecticidal activity (pesticidal ratio) [1, 4]: 100% | insecticidal activity [2, 4]: 100% | acaricidal activity [3, 4]: 100%

CC(=O)NCc1ccc(N2CCC(c3cc(Cl)cc(Cl)c3F)(C(F)(F)F)C2O)nc1C(F)(F)F (centres unmarked) [A3-344]
insecticidal activity (pesticidal ratio) [1, 6]: 100% | insecticidal activity [2, 6]: 100% | acaricidal activity [3, 4]: 100%

O=C(NCc1ccc(N2CCC(c3cc(Cl)cc(Cl)c3)(C(F)(F)F)C2O)nc1C(F)(F)F)C1CC1 (centres unmarked) [A3-5]
insecticidal activity (pesticidal ratio) [1, 4]: 100% | insecticidal activity [2, 4]: 100% | acaricidal activity [3, 4]: 100%
